Laboratory results published in US20250353891A1 (MEDIMMUNE LIMITED, priority 2022, published 2025).
Starred links: 1 amine or outer side, 2 acyl side, 3 side chain; linkers in the order of their positions; H or OH if unused. Non-standard residues stand in square brackets, D forms with d. Residues, ends and D or L forms follow the SMILES beside them. Groups on a side chain read outwards from the residue. *: point of attachment. C20 diacid = O=C(O)CCCCCCCCCCCCCCCCCCC(=O)*; C18 diacid = O=C(O)CCCCCCCCCCCCCCCCC(=O)*; γGlu = O=C(O)[C@H](CCC(=O)[*:2])N[*:1]; αMeF = C[C@](N)(Cc1ccccc1)C(=O)O; AEEA = NCCOCCOCC(=O)O; Aib = CC(C)(N)C(=O)O

Assays:
[1] = target: human glucagon receptor (hGCGR) (Homo sapiens, UniProt P47871); assay: cAMP production (HTRF) in CHO cells expressing hGCGR; assay type: cell-based; parameters: expressed in transfected cells; settings: cAMP, CHO cells, 0.1% BSA, geometric mean; read-out: hGluc-R EC50
Summary of the method: (§1)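 Potency values represent EC50 from 4-parameter logistic curves of HTRF % Delta F signal. Receptor-expressing CHO cells (hGCGR 2×10^5 cells/mL, hGLP-1R 1×10^5 cells/mL) were exposed for 30 min at room temperature before two-step cAMP detection.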

[2] = target: human GLP-1 receptor (hGLP-1R) (Homo sapiens, UniProt P43220); assay: cAMP production (HTRF) in CHO cells expressing hGLP-1R; assay type: cell-based; parameters: expressed in transfected cells; settings: for % Relative Potency Ratio: % GLP-1R activity relative to GLP-1 / % GlucR activity relative to glucagon; for EC50: cAMP, CHO cells, 0.1% BSA, geometric mean, read-out: hGLP-1R EC50
Summary of the method: as §1

Sequence of human GLP-1 receptor (hGLP-1R) (P43220 24-463): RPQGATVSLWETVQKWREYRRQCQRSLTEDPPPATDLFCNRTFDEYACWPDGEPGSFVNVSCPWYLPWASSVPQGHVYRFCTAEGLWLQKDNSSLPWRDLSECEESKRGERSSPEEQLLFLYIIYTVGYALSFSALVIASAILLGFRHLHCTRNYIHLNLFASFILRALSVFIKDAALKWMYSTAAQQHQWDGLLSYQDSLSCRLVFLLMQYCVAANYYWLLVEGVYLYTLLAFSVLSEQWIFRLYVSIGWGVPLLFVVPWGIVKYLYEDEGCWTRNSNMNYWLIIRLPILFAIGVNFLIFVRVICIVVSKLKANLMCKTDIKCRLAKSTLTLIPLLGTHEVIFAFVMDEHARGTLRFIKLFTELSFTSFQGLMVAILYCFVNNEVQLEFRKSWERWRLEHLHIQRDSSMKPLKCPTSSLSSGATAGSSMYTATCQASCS
Sequence of human glucagon receptor (hGCGR) (P47871 26-477): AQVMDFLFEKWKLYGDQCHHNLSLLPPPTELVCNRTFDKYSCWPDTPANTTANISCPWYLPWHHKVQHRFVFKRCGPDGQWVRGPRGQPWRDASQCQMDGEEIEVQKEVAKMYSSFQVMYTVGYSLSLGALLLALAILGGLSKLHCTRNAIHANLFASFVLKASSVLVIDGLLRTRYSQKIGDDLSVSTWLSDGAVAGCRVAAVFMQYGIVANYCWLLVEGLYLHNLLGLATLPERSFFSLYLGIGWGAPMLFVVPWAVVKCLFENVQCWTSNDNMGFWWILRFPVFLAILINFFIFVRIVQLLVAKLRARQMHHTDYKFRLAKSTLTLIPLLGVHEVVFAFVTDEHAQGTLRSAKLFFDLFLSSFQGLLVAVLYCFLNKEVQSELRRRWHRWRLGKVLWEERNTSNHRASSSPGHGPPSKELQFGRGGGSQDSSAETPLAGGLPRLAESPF

Row | Structure (SMILES) | EC50 [1] [nM] | % Relative Potency Ratio [2] | EC50 [2] [nM]
1 | CC[C@H](C)[C@H](NC(=O)[C@H](Cc1c[nH]c2ccccc12)NC(=O)[C@H](CCCCNC(=O)COCCOCCNC(=O)COCCOCCNC(=O)CC[C@H](NC(=O)CCCCCCCCCCCCCCCCC(=O)O)C(=O)O)NC(=O)[C@@H](NC(=O)[C@](C)(Cc1ccccc1)NC(=O)[C@H](CC(=O)O)NC(=O)[C@H](CCC(N)=O)NC(=O)[C@H](C)NC(=O)[C@H](C)NC(=O)[C@H](CCC(N)=O)NC(=O)[C@H](CO)NC(=O)[C@H](CC(=O)O)NC(=O)[C@H](CC(C)C)NC(=O)[C@](C)(Cc1ccccc1)NC(=O)[C@H](CCCCN)NC(=O)[C@H](CO)NC(=O)[C@@H](NC(=O)[C@H](CC(=O)O)NC(=O)[C@H](CO)NC(=O)[C@@H](NC(=O)[C@](C)(Cc1ccccc1)NC(=O)[C@H](CO)NC(=O)CNC(=O)[C@H](Cc1c[nH]cn1)NC(=O)C(C)(C)NC(=O)[C@@H](N)Cc1c[nH]cn1)[C@@H](C)O)C(C)C)C(C)C)C(=O)N[C@@H](C)C(=O)N[C@@H](CC(N)=O)C(=O)N[C@H](C(N)=O)[C@@H](C)O [Peptide 370] (H-H[Aib]HGS[αMeF]TSDVSK[αMeF]LDSQAAQD[αMeF]VK([AEEA-AEEA-γGlu-C18 diacid])WIANT-NH2; N-terminus assumed) | 0.182 | 1.1 | 0.323
2 | CC[C@H](C)[C@H](NC(=O)C(C)(C)NC(=O)[C@H](CCCCNC(=O)COCCOCCNC(=O)COCCOCCNC(=O)CC[C@H](NC(=O)CC[C@H](NC(=O)CCCCCCCCCCCCCCCCC(=O)O)C(=O)O)C(=O)O)NC(=O)[C@@H](NC(=O)[C@](C)(Cc1ccccc1)NC(=O)[C@H](CC(=O)O)NC(=O)[C@H](CCC(N)=O)NC(=O)[C@H](C)NC(=O)[C@H](C)NC(=O)[C@H](CCCNC(=N)N)NC(=O)[C@H](CO)NC(=O)[C@H](CC(=O)O)NC(=O)[C@H](CC(C)C)NC(=O)[C@](C)(Cc1ccccc1)NC(=O)[C@H](CCCCN)NC(=O)[C@H](CO)NC(=O)[C@@H](NC(=O)[C@H](CC(=O)O)NC(=O)[C@H](CO)NC(=O)[C@@H](NC(=O)[C@](C)(Cc1ccccc1)NC(=O)[C@H](CO)NC(=O)CNC(=O)[C@H](Cc1c[nH]cn1)NC(=O)C(C)(C)NC(=O)[C@@H](N)Cc1c[nH]cn1)[C@@H](C)O)C(C)C)C(C)C)C(=O)N[C@@H](C)C(=O)N[C@@H](CC(N)=O)C(=O)N[C@H](C(=O)NCC(=O)NCC(N)=O)[C@@H](C)O [Peptide 373] (H-H[Aib]HGS[αMeF]TSDVSK[αMeF]LDSRAAQD[αMeF]VK([AEEA-AEEA-γGlu-γGlu-C18 diacid])[Aib]IANTGG-NH2; N-terminus assumed) | 0.242 | 7.2 | 0.0667
3 | CC[C@H](C)[C@H](NC(=O)[C@H](Cc1c[nH]c2ccccc12)NC(=O)[C@H](CCCCNC(=O)COCCOCCNC(=O)COCCOCCNC(=O)CC[C@H](NC(=O)CC[C@H](NC(=O)CCCCCCCCCCCCCCCCCCC(=O)O)C(=O)O)C(=O)O)NC(=O)[C@@H](NC(=O)[C@](C)(Cc1ccccc1)NC(=O)[C@H](CC(=O)O)NC(=O)[C@H](CCC(N)=O)NC(=O)[C@H](C)NC(=O)[C@H](C)NC(=O)[C@H](CCCNC(=N)N)NC(=O)[C@H](CO)NC(=O)[C@H](CC(=O)O)NC(=O)[C@H](CC(C)C)NC(=O)[C@](C)(Cc1ccccc1)NC(=O)[C@H](CCCCN)NC(=O)[C@H](CO)NC(=O)[C@@H](NC(=O)[C@H](CC(=O)O)NC(=O)[C@H](CO)NC(=O)[C@@H](NC(=O)[C@](C)(Cc1ccccc1)NC(=O)[C@H](CO)NC(=O)CNC(=O)[C@H](Cc1c[nH]cn1)NC(=O)C(C)(C)NC(=O)[C@@H](N)Cc1c[nH]cn1)[C@@H](C)O)C(C)C)C(C)C)C(=O)N[C@@H](C)C(=O)N[C@@H](CC(N)=O)C(=O)N[C@H](C(N)=O)[C@@H](C)O [Peptide 374] (H-H[Aib]HGS[αMeF]TSDVSK[αMeF]LDSRAAQD[αMeF]VK([AEEA-AEEA-γGlu-γGlu-C20 diacid])WIANT-NH2; N-terminus assumed) | 0.26 | 1.2 | 0.434
4 | CC[C@H](C)[C@H](NC(=O)[C@H](Cc1c[nH]c2ccccc12)NC(=O)[C@H](CCCCNC(=O)COCCOCCNC(=O)COCCOCCNC(=O)CC[C@H](NC(=O)CC[C@H](NC(=O)CCCCCCCCCCCCCCCCCCC(=O)O)C(=O)O)C(=O)O)NC(=O)[C@@H](NC(=O)[C@H](Cc1ccccc1)NC(=O)[C@H](CC(=O)O)NC(=O)[C@H](CCC(N)=O)NC(=O)[C@H](C)NC(=O)[C@H](C)NC(=O)[C@H](CCCNC(=N)N)NC(=O)[C@H](CO)NC(=O)[C@H](CC(=O)O)NC(=O)[C@H](CC(C)C)NC(=O)[C@](C)(Cc1ccccc1)NC(=O)[C@H](CCCCN)NC(=O)[C@H](CO)NC(=O)[C@@H](NC(=O)[C@H](CC(=O)O)NC(=O)[C@H](CO)NC(=O)[C@@H](NC(=O)[C@](C)(Cc1ccccc1)NC(=O)[C@H](CO)NC(=O)CNC(=O)[C@H](Cc1c[nH]cn1)NC(=O)C(C)(C)NC(=O)[C@@H](N)Cc1c[nH]cn1)[C@@H](C)O)C(C)C)C(C)C)C(=O)N[C@@H](C)C(=O)N[C@@H](CC(N)=O)C(=O)N[C@H](C(N)=O)[C@@H](C)O [Peptide 377] (H-H[Aib]HGS[αMeF]TSDVSK[αMeF]LDSRAAQDFVK([AEEA-AEEA-γGlu-γGlu-C20 diacid])WIANT-NH2; N-terminus assumed) | 0.19 | 2.5 | 0.15

These reach a lower EC50 [1]. Values come first.

Row | EC50 [1] [nM] | % Relative Potency Ratio [2] | EC50 [2] [nM] | Structure (SMILES)
5 | 0.0872 | 0.9 | 0.191 | CC[C@H](C)[C@H](NC(=O)[C@H](Cc1c[nH]c2ccccc12)NC(=O)[C@H](CCCCNC(=O)COCCOCCNC(=O)COCCOCCNC(=O)CC[C@H](NC(=O)CC[C@H](NC(=O)CCCCCCCCCCCCCCCCC(=O)O)C(=O)O)C(=O)O)NC(=O)[C@@H](NC(=O)[C@](C)(Cc1ccccc1)NC(=O)[C@H](CC(=O)O)NC(=O)[C@H](CCC(N)=O)NC(=O)[C@H](C)NC(=O)[C@H](C)NC(=O)[C@H](CCCNC(=N)N)NC(=O)[C@H](CO)NC(=O)[C@H](CC(=O)O)NC(=O)[C@H](CC(C)C)NC(=O)[C@](C)(Cc1ccccc1)NC(=O)[C@H](CCCCN)NC(=O)[C@H](CO)NC(=O)[C@@H](NC(=O)[C@H](CC(=O)O)NC(=O)[C@H](CO)NC(=O)[C@@H](NC(=O)[C@](C)(Cc1ccccc1)NC(=O)[C@H](CO)NC(=O)CNC(=O)[C@H](Cc1c[nH]cn1)NC(=O)C(C)(C)NC(=O)[C@@H](N)Cc1c[nH]cn1)[C@@H](C)O)C(C)C)C(C)C)C(=O)N[C@@H](C)C(=O)N[C@@H](CC(N)=O)C(=O)N[C@H](C(N)=O)[C@@H](C)O [Peptide 371] (H-H[Aib]HGS[αMeF]TSDVSK[αMeF]LDSRAAQD[αMeF]VK([AEEA-AEEA-γGlu-γGlu-C18 diacid])WIANT-NH2; N-terminus assumed)
6 | 0.158 | 2.0 | 0.159 | CC[C@H](C)[C@H](NC(=O)[C@H](CO)NC(=O)[C@H](CCCCNC(=O)COCCOCCNC(=O)COCCOCCNC(=O)CC[C@H](NC(=O)CC[C@H](NC(=O)CCCCCCCCCCCCCCCCC(=O)O)C(=O)O)C(=O)O)NC(=O)[C@@H](NC(=O)[C@](C)(Cc1ccccc1)NC(=O)[C@H](CC(=O)O)NC(=O)[C@H](CCC(N)=O)NC(=O)[C@H](C)NC(=O)[C@H](C)NC(=O)[C@H](CCCNC(=N)N)NC(=O)[C@H](CO)NC(=O)[C@H](CC(=O)O)NC(=O)[C@H](CC(C)C)NC(=O)[C@](C)(Cc1ccccc1)NC(=O)[C@H](CCCCN)NC(=O)[C@H](CO)NC(=O)[C@@H](NC(=O)[C@H](CC(=O)O)NC(=O)[C@H](CO)NC(=O)[C@@H](NC(=O)[C@](C)(Cc1ccccc1)NC(=O)[C@H](CO)NC(=O)CNC(=O)[C@H](Cc1c[nH]cn1)NC(=O)C(C)(C)NC(=O)[C@@H](N)Cc1c[nH]cn1)[C@@H](C)O)C(C)C)C(C)C)C(=O)N[C@@H](C)C(=O)N[C@@H](CC(N)=O)C(=O)N[C@H](C(N)=O)[C@@H](C)O [Peptide 378] (H-H[Aib]HGS[αMeF]TSDVSK[αMeF]LDSRAAQD[αMeF]VK([AEEA-AEEA-γGlu-γGlu-C18 diacid])SIANT-NH2; N-terminus assumed)
7 | 0.0857 | 2.4 | 0.0718 | CC[C@H](C)[C@H](NC(=O)[C@H](CO)NC(=O)[C@H](CCCCNC(=O)COCCOCCNC(=O)COCCOCCNC(=O)CC[C@H](NC(=O)CCCCCCCCCCCCCCCCC(=O)O)C(=O)O)NC(=O)[C@@H](NC(=O)[C@](C)(Cc1ccccc1)NC(=O)[C@H](CC(=O)O)NC(=O)[C@H](CCC(N)=O)NC(=O)[C@H](C)NC(=O)[C@H](C)NC(=O)[C@H](CCCNC(=N)N)NC(=O)[C@H](CO)NC(=O)[C@H](CC(=O)O)NC(=O)[C@H](CC(C)C)NC(=O)[C@](C)(Cc1ccccc1)NC(=O)[C@H](CCCCN)NC(=O)[C@H](CO)NC(=O)[C@@H](NC(=O)[C@H](CC(=O)O)NC(=O)[C@H](CO)NC(=O)[C@@H](NC(=O)[C@](C)(Cc1ccccc1)NC(=O)[C@H](CO)NC(=O)CNC(=O)[C@H](Cc1c[nH]cn1)NC(=O)C(C)(C)NC(=O)[C@@H](N)Cc1c[nH]cn1)[C@@H](C)O)C(C)C)C(C)C)C(=O)N[C@@H](C)C(=O)N[C@@H](CC(N)=O)C(=O)N[C@H](C(N)=O)[C@@H](C)O [Peptide 379] (H-H[Aib]HGS[αMeF]TSDVSK[αMeF]LDSRAAQD[αMeF]VK([AEEA-AEEA-γGlu-C18 diacid])SIANT-NH2)
